According to ChEMBL document CHEMBL1955750, “Benzodiazepines and benzotriazepines as protein interaction inhibitors targeting bromodomains of the BET family” (Bioorg Med Chem, 2012):
Calls of active or inactive are those of the source. The calls are words filed in the database; no cut-off is given here.

Tests used:
[1] = target: Protein polybromo-1 (Homo sapiens) (UniProt Q86U86); test: Binding affinity to PB1 assessed as change in melting temperature at 100 uM by protein stability shift assay
[2] = target: T1, Bromodomain-containing protein 4 (Homo sapiens, UniProt O60885); test: Binding affinity to BRD4-BD2 assessed as change in melting temperature at 100 uM by protein stability shift assay
[3] = target: Bromodomain-containing protein 2 (Homo sapiens) (UniProt P25440); test: Binding affinity to BRD2-BD2 assessed as change in melting temperature at 100 uM by protein stability shift assay
[4] = target: CREB-binding protein (Homo sapiens) (UniProt Q92793); test: Binding affinity to CREBBP assessed as change in melting temperature at 100 uM by protein stability shift assay
[5] = target: T1, Bromodomain-containing protein 4; test: Binding affinity to BRD4-BD1 assessed as change in melting temperature at 100 uM by protein stability shift assay
[6] = target: Bromodomain testis-specific protein (Homo sapiens) (UniProt Q58F21); test: Binding affinity to BRDT-BD1 assessed as change in melting temperature at 100 uM by protein stability shift assay
[7] = target: Bromodomain-containing protein 2 (Homo sapiens) (UniProt P25440); test: Binding affinity to BRD2-BD1 assessed as change in melting temperature at 100 uM by protein stability shift assay
[8] = target: Bromodomain-containing protein 3 (Homo sapiens) (UniProt Q15059); test: Binding affinity to BRD3-BD2 assessed as change in melting temperature at 100 uM by protein stability shift assay
[9] = target: Bromodomain-containing protein 3 (Homo sapiens) (UniProt Q15059); test: Binding affinity to BRD3-BD1 assessed as change in melting temperature at 100 uM by protein stability shift assay
[10] = target: Histone acetyltransferase KAT2B (Homo sapiens) (UniProt Q92831); test: Binding affinity to PCAF assessed as change in melting temperature at 100 uM by protein stability shift assay
[11] = Binding affinity to LOC93349 assessed as change in melting temperature at 100 uM by protein stability shift assay
[12] = target: Bromodomain adjacent to zinc finger domain protein 2B (Homo sapiens) (UniProt Q9UIF8); test: Binding affinity to BAZ2B assessed as change in melting temperature at 100 uM by protein stability shift assay
[13] = target: Bromodomain-containing protein 3 (Homo sapiens) (UniProt Q15059); test: Binding affinity to BRD3-BD2 assessed as change in melting temperature at 10 uM by protein stability shift assay
[14] = target: CREB-binding protein (Homo sapiens) (UniProt Q92793); test: Binding affinity to CREBBP assessed as change in melting temperature at 10 uM by protein stability shift assay
[15] = target: Bromodomain testis-specific protein (Homo sapiens) (UniProt Q58F21); test: Binding affinity to BRDT-BD1 assessed as change in melting temperature at 10 uM by protein stability shift assay
[16] = Binding affinity to LOC93349 assessed as change in melting temperature at 10 uM by protein stability shift assay
[17] = target: Bromodomain-containing protein 2 (Homo sapiens) (UniProt P25440); test: Binding affinity to BRD2-BD2 assessed as change in melting temperature at 10 uM by protein stability shift assay
[18] = target: Protein polybromo-1 (Homo sapiens) (UniProt Q86U86); test: Binding affinity to PB1 assessed as change in melting temperature at 10 uM by protein stability shift assay
[19] = target: Bromodomain adjacent to zinc finger domain protein 2B (Homo sapiens) (UniProt Q9UIF8); test: Binding affinity to BAZ2B assessed as change in melting temperature at 10 uM by protein stability shift assay
[20] = target: T1, Bromodomain-containing protein 4; test: Binding affinity to BRD4-BD2 assessed as change in melting temperature at 10 uM by protein stability shift assay
[21] = target: T1, Bromodomain-containing protein 4; test: Binding affinity to BRD4-BD1 assessed as change in melting temperature at 10 uM by protein stability shift assay
[22] = target: Histone acetyltransferase KAT2B (Homo sapiens) (UniProt Q92831); test: Binding affinity to PCAF assessed as change in melting temperature at 10 uM by protein stability shift assay
[23] = target: Bromodomain-containing protein 2 (Homo sapiens) (UniProt P25440); test: Binding affinity to BRD2-BD1 assessed as change in melting temperature at 10 uM by protein stability shift assay
[24] = target: Bromodomain-containing protein 3 (Homo sapiens) (UniProt Q15059); test: Binding affinity to BRD3-BD1 assessed as change in melting temperature at 10 uM by protein stability shift assay
[25] = target: T1, Bromodomain-containing protein 4
Description: Binding affinity to BRD4-BD1 assessed as change in melting temperature by isothermal titration calorimetry

Chain of Bromodomain-containing protein 3 (Homo sapiens) (Q15059 2-726 limits assumed): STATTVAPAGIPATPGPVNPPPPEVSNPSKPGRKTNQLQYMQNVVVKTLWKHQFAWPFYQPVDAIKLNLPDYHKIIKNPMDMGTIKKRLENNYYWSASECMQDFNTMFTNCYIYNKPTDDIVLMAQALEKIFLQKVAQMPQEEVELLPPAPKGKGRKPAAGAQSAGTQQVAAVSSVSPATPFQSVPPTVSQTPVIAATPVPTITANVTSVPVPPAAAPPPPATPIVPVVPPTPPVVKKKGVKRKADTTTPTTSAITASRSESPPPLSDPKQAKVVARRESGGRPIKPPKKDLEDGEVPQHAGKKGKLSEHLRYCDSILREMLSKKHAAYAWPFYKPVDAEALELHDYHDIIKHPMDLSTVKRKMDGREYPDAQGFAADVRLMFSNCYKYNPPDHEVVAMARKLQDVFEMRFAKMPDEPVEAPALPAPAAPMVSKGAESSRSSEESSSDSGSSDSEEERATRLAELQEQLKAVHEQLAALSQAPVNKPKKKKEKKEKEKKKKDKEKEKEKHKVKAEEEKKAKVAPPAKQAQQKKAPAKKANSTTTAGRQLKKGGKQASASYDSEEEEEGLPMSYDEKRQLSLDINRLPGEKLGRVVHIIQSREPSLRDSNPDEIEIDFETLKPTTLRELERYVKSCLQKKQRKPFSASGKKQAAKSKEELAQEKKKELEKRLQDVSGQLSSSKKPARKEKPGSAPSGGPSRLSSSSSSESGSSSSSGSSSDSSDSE
Chain of Protein polybromo-1 (Homo sapiens) (Q86U86 whole entry, the tested form may be a part): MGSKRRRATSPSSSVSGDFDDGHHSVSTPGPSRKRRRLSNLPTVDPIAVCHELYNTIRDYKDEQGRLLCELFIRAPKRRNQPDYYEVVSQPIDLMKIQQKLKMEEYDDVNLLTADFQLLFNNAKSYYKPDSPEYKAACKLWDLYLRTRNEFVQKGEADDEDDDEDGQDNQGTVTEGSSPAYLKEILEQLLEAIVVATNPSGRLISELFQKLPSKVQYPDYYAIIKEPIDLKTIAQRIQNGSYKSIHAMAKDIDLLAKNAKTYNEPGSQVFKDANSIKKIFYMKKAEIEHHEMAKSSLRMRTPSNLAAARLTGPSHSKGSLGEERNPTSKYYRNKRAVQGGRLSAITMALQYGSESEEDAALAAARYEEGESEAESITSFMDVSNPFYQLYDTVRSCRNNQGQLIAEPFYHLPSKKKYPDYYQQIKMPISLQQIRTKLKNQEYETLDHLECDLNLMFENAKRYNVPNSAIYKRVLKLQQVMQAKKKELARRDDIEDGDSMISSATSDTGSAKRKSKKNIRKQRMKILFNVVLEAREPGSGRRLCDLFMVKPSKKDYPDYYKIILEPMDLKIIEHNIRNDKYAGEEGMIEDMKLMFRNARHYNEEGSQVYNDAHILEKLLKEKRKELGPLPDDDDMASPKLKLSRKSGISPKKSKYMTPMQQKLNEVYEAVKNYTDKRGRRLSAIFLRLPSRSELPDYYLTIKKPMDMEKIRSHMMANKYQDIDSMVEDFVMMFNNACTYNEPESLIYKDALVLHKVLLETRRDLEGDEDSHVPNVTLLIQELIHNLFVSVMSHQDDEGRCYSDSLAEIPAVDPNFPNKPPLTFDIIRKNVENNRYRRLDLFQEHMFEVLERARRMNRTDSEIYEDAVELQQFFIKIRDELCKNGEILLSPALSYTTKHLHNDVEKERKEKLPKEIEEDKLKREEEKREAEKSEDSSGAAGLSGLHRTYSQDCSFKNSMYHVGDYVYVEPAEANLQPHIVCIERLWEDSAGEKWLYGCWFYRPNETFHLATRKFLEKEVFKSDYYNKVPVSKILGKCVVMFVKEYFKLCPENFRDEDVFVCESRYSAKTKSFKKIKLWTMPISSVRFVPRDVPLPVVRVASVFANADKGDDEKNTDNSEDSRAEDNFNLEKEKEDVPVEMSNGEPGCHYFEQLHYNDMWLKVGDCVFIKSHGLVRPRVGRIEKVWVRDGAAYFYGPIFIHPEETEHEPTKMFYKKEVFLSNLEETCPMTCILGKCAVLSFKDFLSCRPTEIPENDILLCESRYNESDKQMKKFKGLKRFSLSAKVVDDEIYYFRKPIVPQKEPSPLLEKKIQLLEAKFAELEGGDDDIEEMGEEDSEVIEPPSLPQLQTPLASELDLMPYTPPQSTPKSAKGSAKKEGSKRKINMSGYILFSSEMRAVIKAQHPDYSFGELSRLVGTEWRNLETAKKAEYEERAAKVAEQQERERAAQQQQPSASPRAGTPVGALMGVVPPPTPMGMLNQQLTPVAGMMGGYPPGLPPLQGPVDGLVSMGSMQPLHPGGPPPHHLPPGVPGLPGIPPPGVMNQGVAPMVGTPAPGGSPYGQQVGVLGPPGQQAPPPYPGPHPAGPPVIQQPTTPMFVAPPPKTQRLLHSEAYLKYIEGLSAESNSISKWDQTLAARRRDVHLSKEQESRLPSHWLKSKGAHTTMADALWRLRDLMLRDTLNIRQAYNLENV
Chain of Histone acetyltransferase KAT2B (Homo sapiens) (Q92831 whole entry, looked up): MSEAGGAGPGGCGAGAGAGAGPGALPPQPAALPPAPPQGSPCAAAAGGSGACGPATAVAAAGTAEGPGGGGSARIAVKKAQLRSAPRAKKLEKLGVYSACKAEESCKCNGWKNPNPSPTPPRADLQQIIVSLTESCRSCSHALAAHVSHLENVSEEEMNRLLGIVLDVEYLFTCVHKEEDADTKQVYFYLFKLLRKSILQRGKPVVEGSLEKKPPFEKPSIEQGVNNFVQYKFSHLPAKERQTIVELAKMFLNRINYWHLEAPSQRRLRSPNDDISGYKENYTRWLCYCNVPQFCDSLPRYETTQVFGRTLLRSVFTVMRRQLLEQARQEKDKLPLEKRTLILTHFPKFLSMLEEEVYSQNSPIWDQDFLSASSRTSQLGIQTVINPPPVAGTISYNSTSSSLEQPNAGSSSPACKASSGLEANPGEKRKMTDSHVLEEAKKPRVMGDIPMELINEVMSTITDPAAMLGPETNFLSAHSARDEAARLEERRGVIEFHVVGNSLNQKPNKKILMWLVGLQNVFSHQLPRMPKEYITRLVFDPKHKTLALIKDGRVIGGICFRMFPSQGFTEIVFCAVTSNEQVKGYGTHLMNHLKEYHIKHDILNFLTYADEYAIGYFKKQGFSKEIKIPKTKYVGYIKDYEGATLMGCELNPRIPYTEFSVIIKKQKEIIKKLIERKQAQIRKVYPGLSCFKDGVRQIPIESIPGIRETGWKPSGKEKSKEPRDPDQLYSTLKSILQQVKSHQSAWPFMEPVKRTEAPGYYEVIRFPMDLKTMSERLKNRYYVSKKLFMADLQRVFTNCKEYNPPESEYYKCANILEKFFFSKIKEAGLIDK
Chain of Bromodomain-containing protein 2 (Homo sapiens) (P25440 whole entry, looked up): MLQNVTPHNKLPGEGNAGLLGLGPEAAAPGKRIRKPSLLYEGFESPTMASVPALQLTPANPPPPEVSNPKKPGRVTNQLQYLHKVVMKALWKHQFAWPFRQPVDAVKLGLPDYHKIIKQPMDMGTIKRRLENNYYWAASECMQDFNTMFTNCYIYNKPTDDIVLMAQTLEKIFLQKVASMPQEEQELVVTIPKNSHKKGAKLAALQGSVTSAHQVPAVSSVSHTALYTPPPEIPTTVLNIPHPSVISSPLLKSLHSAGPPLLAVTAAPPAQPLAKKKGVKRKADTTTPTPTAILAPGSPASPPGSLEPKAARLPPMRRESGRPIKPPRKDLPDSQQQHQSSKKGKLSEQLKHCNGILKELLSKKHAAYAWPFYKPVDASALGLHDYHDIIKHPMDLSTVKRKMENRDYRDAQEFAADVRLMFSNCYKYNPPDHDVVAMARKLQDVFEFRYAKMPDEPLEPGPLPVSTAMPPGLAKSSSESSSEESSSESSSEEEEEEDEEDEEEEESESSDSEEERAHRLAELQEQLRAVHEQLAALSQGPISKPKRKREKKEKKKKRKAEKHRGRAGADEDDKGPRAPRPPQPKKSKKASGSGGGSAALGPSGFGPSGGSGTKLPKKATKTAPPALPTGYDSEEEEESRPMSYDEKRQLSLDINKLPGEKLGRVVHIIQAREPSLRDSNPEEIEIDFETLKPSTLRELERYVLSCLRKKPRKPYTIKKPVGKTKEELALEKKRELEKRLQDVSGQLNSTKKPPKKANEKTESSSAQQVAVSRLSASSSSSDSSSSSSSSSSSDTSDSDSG

CN1N=C(c2ccccc2)c2cc(Cl)ccc2-n2c(N)nnc21
ΔTm [1]: < 2 °C
ΔTm [2]: < 2 °C
ΔTm [3]: < 2 °C
ΔTm [4]: < 2 °C
ΔTm [5]: < 2 °C
ΔTm [6]: < 2 °C
ΔTm [7]: < 2 °C
ΔTm [8]: < 2 °C
ΔTm [9]: < 2 °C
ΔTm [10]: < 2 °C
ΔTm [11]: < 2 °C
ΔTm [12]: < 2 °C

CCC1=NCC(=S)Nc2ccc(Cl)cc21
ΔTm [1]: < 2 °C
ΔTm [2]: < 2 °C
ΔTm [3]: < 2 °C
ΔTm [4]: < 2 °C
ΔTm [5]: < 2 °C
ΔTm [6]: < 2 °C
ΔTm [7]: < 2 °C
ΔTm [8]: < 2 °C
ΔTm [9]: < 2 °C
ΔTm [10]: < 2 °C
ΔTm [11]: < 2 °C
ΔTm [12]: < 2 °C

CCOC(=O)c1ncn2c1[C@@H]1CCCN1C(=O)c1cc(OC)ccc1-2
Activity [13]: inactive
Activity [14]: inactive
Activity [15]: inactive
Activity [16]: inactive
Activity [17]: inactive
Activity [18]: inactive
Activity [19]: inactive
Activity [20]: Active
Activity [21]: Active
Activity [22]: inactive
Activity [23]: Active
Activity [24]: Active

Cc1nnc2n1-c1ccc(Cl)cc1C(c1ccccc1)=NC2 [ALPRAZOLAM]
ΔTm [25]: 4.7 °C
Activity [13]: Active
Activity [14]: Active
Activity [15]: Active
Activity [16]: inactive
Activity [17]: Active
Activity [18]: Active
Activity [19]: inactive
Activity [20]: Active
Activity [21]: Active
Activity [22]: inactive
Activity [23]: Active
Activity [24]: Active

CCC1=NCc2nnc(-c3cccc(OC)c3)n2-c2ccc(Cl)cc21
ΔTm [1]: < 2 °C
ΔTm [2]: < 2 °C
ΔTm [3]: < 2 °C
ΔTm [4]: < 2 °C
ΔTm [5]: < 2 °C
ΔTm [6]: < 2 °C
ΔTm [7]: < 2 °C
ΔTm [8]: < 2 °C
ΔTm [9]: < 2 °C
ΔTm [10]: < 2 °C
ΔTm [11]: < 2 °C
ΔTm [12]: < 2 °C

CCC1=NCC(=O)Nc2ccc(Cl)cc21
ΔTm [1]: < 2 °C
ΔTm [2]: < 2 °C
ΔTm [3]: < 2 °C
ΔTm [4]: < 2 °C
ΔTm [5]: < 2 °C
ΔTm [6]: < 2 °C
ΔTm [7]: < 2 °C
ΔTm [8]: < 2 °C
ΔTm [9]: < 2 °C
ΔTm [10]: < 2 °C
ΔTm [11]: < 2 °C
ΔTm [12]: < 2 °C

Cc1nnc2n1-c1ccc(Cl)cc1C(c1ccccc1)=NN2C
ΔTm [25]: 4.2 °C
ΔTm [1]: < 2 °C
ΔTm [2]: < 2 °C
Activity [13]: Active
Activity [14]: Active
ΔTm [3]: < 2 °C
Activity [15]: Active
Activity [16]: Active
Activity [17]: Active
ΔTm [4]: < 2 °C
ΔTm [5]: < 2 °C
ΔTm [6]: < 2 °C
Activity [18]: Active
Activity [19]: inactive
ΔTm [7]: < 2 °C
ΔTm [8]: < 2 °C
Activity [20]: Active
Activity [21]: Active
ΔTm [9]: < 2 °C
Activity [22]: Active
Activity [23]: Active
ΔTm [10]: < 2 °C
ΔTm [11]: < 2 °C
ΔTm [12]: < 2 °C
Activity [24]: Active

CC(=O)NNC1=Nc2ccc(Cl)cc2C(c2ccccc2)=NN1C
ΔTm [1]: < 2 °C
ΔTm [2]: < 2 °C
ΔTm [3]: < 2 °C
ΔTm [4]: < 2 °C
ΔTm [5]: < 2 °C
ΔTm [6]: < 2 °C
ΔTm [7]: < 2 °C
ΔTm [8]: < 2 °C
ΔTm [9]: < 2 °C
ΔTm [10]: < 2 °C
ΔTm [11]: < 2 °C
ΔTm [12]: < 2 °C

CCC1=NCc2nnc(-c3ccccc3)n2-c2ccc(Cl)cc21
ΔTm [1]: < 2 °C
ΔTm [2]: < 2 °C
ΔTm [3]: < 2 °C
ΔTm [4]: < 2 °C
ΔTm [5]: < 2 °C
ΔTm [6]: < 2 °C
ΔTm [7]: < 2 °C
ΔTm [8]: < 2 °C
ΔTm [9]: < 2 °C
ΔTm [10]: < 2 °C
ΔTm [11]: < 2 °C
ΔTm [12]: < 2 °C

CCC1=NCc2nnc(CC)n2-c2ccc(Cl)cc21
ΔTm [1]: < 2 °C
ΔTm [2]: < 2 °C
ΔTm [3]: < 2 °C
ΔTm [4]: < 2 °C
ΔTm [5]: < 2 °C
ΔTm [6]: < 2 °C
ΔTm [7]: < 2 °C
ΔTm [8]: < 2 °C
ΔTm [9]: < 2 °C
ΔTm [10]: < 2 °C
ΔTm [11]: < 2 °C
ΔTm [12]: < 2 °C

CCC1=NCc2nnc(C)n2-c2ccc(Cl)cc21
ΔTm [1]: < 2 °C
ΔTm [2]: < 2 °C
ΔTm [3]: < 2 °C
ΔTm [4]: < 2 °C
ΔTm [5]: < 2 °C
ΔTm [6]: < 2 °C
ΔTm [7]: < 2 °C
ΔTm [8]: < 2 °C
ΔTm [9]: < 2 °C
ΔTm [10]: < 2 °C
ΔTm [11]: < 2 °C
ΔTm [12]: < 2 °C

CN1N=C(c2ccccc2)c2cc(Cl)ccc2NC1=S
ΔTm [1]: < 2 °C
ΔTm [2]: < 2 °C
ΔTm [3]: < 2 °C
ΔTm [4]: < 2 °C
ΔTm [5]: < 2 °C
ΔTm [6]: < 2 °C
ΔTm [7]: < 2 °C
ΔTm [8]: < 2 °C
ΔTm [9]: < 2 °C
ΔTm [10]: < 2 °C
ΔTm [11]: < 2 °C
ΔTm [12]: < 2 °C

CCC1=NCc2nnc(-c3ccncc3)n2-c2ccc(Cl)cc21
ΔTm [1]: < 2 °C
ΔTm [2]: < 2 °C
ΔTm [3]: < 2 °C
ΔTm [4]: < 2 °C
ΔTm [5]: < 2 °C
ΔTm [6]: < 2 °C
ΔTm [7]: < 2 °C
ΔTm [8]: < 2 °C
ΔTm [9]: < 2 °C
ΔTm [10]: < 2 °C
ΔTm [11]: < 2 °C
ΔTm [12]: < 2 °C

CN1N=C(c2ccccc2)c2cc(Cl)ccc2-n2c1n[nH]c2=O
ΔTm [1]: < 2 °C
ΔTm [2]: < 2 °C
ΔTm [3]: < 2 °C
ΔTm [4]: < 2 °C
ΔTm [5]: < 2 °C
ΔTm [6]: < 2 °C
ΔTm [7]: < 2 °C
ΔTm [8]: < 2 °C
ΔTm [9]: < 2 °C
ΔTm [10]: < 2 °C
ΔTm [11]: < 2 °C
ΔTm [12]: < 2 °C

Clc1ccc2c(c1)C(c1ccccc1)=NCc1nncn1-2
Activity [13]: Active
Activity [14]: Active
Activity [15]: inactive
Activity [16]: inactive
Activity [17]: inactive
Activity [18]: inactive
Activity [19]: inactive
Activity [20]: Active
Activity [21]: Active
Activity [22]: inactive
Activity [23]: inactive
Activity [24]: Active

Cc1ncc2n1-c1ccc(Cl)cc1C(c1ccccc1F)=NC2
Activity [13]: Active
Activity [14]: Active
Activity [15]: Active
Activity [16]: inactive
Activity [17]: Active
Activity [18]: inactive
Activity [19]: inactive
Activity [20]: Active
Activity [21]: Active
Activity [22]: inactive
Activity [23]: Active
Activity [24]: Active
